We go through 14 compounds from patent publication US8269000B2, “Substituted pyrimidine and triazine compounds” (Gruenenthal GmbH, priority 2008, dated 2012).

In one test the target is T1, human B1R (Homo sapiens, UniProt P46663).
T1 construct: expressed in transfected cells; host or cells: CHO K1 cells
T1 sequence (P46663 1-353): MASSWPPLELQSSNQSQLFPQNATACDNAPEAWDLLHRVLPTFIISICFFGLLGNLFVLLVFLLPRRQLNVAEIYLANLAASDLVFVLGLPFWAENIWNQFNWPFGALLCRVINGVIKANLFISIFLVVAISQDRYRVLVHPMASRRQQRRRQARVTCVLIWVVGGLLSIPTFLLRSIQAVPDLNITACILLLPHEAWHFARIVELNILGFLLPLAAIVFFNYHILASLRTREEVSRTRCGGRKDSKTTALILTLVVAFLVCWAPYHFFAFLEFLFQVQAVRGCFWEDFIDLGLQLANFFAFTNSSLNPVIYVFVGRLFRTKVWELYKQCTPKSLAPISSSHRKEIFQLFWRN
Kind of test: FLIPR Ca2+ functional study on bradykinin receptor 1 (hB1R CHO K1 cells). It is filed as cell-based. Particulars: % inhibition human B1R at 10 μM; for inhibition at 10 µM: read-out: % inh. (hum. B1R) 10 μM. On the procedure:
The agonistic or antagonistic activity of substances can be quantified on the bradykinin receptor 1 (B1R) of the species human and rat using ectopically expressing cell lines (CHO K1 cells) and with the aid of a Ca^2+-sensitive dye (Fluo-4) using a fluorescent imaging plate reader (FLIPR). The indication in % activation is based on the Ca^2+ signal after addition of Lys-Des-Arg^9-bradykinin (0.5 nM) or Des-Arg^9-bradykinin (100 nM). Antagonists lead to suppression of the Ca^2+ influx after the addition of the agonist. % Inhibition compared with the maximum achievable inhibition is indicated.
The agonistic or antagonistic activity of substances can be determined on the bradykinin receptor 1 (B1R) of the species human and rat using the following assay. According to this assay, the Ca^2+ influx through the channel is quantified with the aid of a Ca^2+-sensitive dye (Fluo-4 type, Molecular Probes Europe BV, Leiden, Netherlands) using a Fluorescent Imaging Plate Reader (FLIPR, Molecular Devices, Sunnyvale, USA).
Chinese hamster ovary cells (CHO K1 cells) which have been stably transfected with the human B1R gene (hB1R cells) or with the B1R gene of the rat (rB1R cells) are used. For functional studies, the cells are plated out on black 96-well plates having a clear base (BD Biosciences, Heidelberg, Germany or Greiner, Frickenhausen, Germany) in a density of 20,000-35,000 cells/well. The cells are left overnight at 37° C. and with 5% CO2 in culture medium (hB1R cells: Nutrient Mixture Ham's F12, Gibco Invitrogen GmbH, Karlsruhe, Germany or DMEM, Sigma-Aldrich, Taufkirchen, Germany; rB1R cells: D-MEM/F12, Gibco Invitrogen GmbH, Karlsruhe, Germany), with 10 vol.% FBS (fetal bovine serum, Gibco Invitrogen GmbH, Karlsruhe, Germany or PAN Biotech GmbH, Aidenbach, Germany). On the following day, the cells are loaded for 60 minutes at 37° C. with 2.13 μM Fluo-4 (Molecular Probes Europe BV, Leiden, Netherlands) in HBSS buffer (Hank's buffered saline solution, Gibco Invitrogen GmbH, Karlsruhe, Germany) […] (Sigma-Aldrich, Taufkirchen, Germany) and 10 mM HEPES (Sigma-Aldrich, Taufkirchen, Germany). The plates are then washed twice with HBSS buffer, and HBSS buffer additionally containing 0.1% BSA (bovine serum albumin; Sigma-Aldrich, Taufkirchen, Germany), 5.6 mM glucose and 0.05% gelatin (Merck KGaA, Darmstadt, Germany) is added to the plates. After incubation for a further 20 minutes at room temperature, the plates are inserted into the FLIPR for Ca^2+ measurement. Alternatively, washing is carried out with buffer A (15 mM HEPES, 80 mM NaCl, 5 mM KCl, 1.2 mM CaCl2, 0.7 mM MgSO4, 2 g/l glucose, 2.5 mM probenecid) followed by loading with buffer A with added 2.5 μM Fluo-4 and 0.025% Pluronic F127 (Sigma-Aldrich, Taufkirchen, Germany). The cells are then washed twice with buffer A and incubated for 30 minutes at room temperature with buffer A additionally containing 0.05% BSA and 0.05% gelatin and are then inserted into the FLIPR for Ca^2+ measurement. The Ca^2+-dependent fluorescence is measured before and after the addition of substances (λex=488 nm, λem=540 nm). Quantification is carried out by measuring the highest fluorescence intensity (FC, fluorescence counts) over time.
The FLIPR protocol consists of two substance additions. Test substances (10 μM) are first pipetted onto the cells and the Ca^2+ influx is compared with the control (hB1R: Lys-Des-Arg^9-bradykinin>=50 nM; rB1R: Des-Arg^9-bradykinin 10 μM). This gives the activation in %, based on the Ca^2+ signal after addition of Lys-Des-Arg^9-bradykinin (>=50 nM) or Des-Arg^9-bradykinin (10 μM). After 10-20 minutes' incubation, Lys-Des-Arg^9-bradykinin (hB1R) or Des-Arg^9-bradykinin (rB1R) is applied in the concentration of the EC80, and the influx of Ca^2+ is likewise determined. Antagonists lead to suppression of the Ca^2+ influx. The % inhibition compared with the maximum achievable inhibition is calculated. […]

The next test has as its target T2, rat B1R (Rattus norvegicus, UniProt P97583).
T2 construct: expressed in transfected cells; host or cells: CHO K1 cells
T2 sequence (P97583 1-337): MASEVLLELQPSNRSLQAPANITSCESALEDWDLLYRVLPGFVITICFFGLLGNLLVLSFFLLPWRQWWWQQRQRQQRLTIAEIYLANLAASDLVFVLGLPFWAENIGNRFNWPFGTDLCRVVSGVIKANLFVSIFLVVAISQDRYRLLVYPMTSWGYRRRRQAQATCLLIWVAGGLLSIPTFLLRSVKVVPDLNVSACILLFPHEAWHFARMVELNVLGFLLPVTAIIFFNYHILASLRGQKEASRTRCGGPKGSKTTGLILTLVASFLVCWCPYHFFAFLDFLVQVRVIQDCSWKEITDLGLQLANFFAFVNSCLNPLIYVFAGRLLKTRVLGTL
Kind of test: FLIPR Ca2+ functional study on bradykinin receptor 1 (rB1R CHO K1 cells). It is filed as cell-based. Particulars: for inhibition at 10 µM: CHO-K1, % inhibition rat B1R at 10 μM, read-out: % inh. (rat B1R) 10 μM; for % inh. (rat B1R) 10 μM: % inhibition rat B1R at 10 μM. Summed up: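 Antagonism was calculated as % of maximal inhibition of the Ca2+ rise triggered by agonist at EC80 (Lys-Des-Arg9-bradykinin for hB1R, Des-Arg9-bradykinin for rB1R), added 10-20 min after test compound (10 μM or serial dilutions for IC50) to Fluo-4-loaded transfected CHO K1 cells on FLIPR. Duplicates or triplicates, ≥2 independent runs.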

`COc1cc(C)c(S(=O)(=O)N2CCCCC2COc2nccc(N3CCC4(CCN(Cc5ccc(F)cc5)C4=O)CC3)n2)c(C)c1` (stereo not shown) [G_CC-039, 3-[(4-fluorophenyl)methyl]-8-[2-[[1-(4-methoxy-2,6-dimethylphenyl)sulfonyl-2-piperidinyl]methoxy]-4-pyrimidinyl]-3,8-diazaspiro[4.5]decan-4-one]: the results for the inhibition at 10 µM at human B1R and at rat B1R were 58% and 99%, respectively.
For `COc1cc(C)c(S(=O)(=O)N2CCC[C@H]2COc2nccc(N3CCC4(CCN(Cc5ccccc5)C4)C3)n2)c(C)c1` (stereo partly drawn) [G_CC-032, 3-benzyl-7-[2-[[(2S)-1-(4-methoxy-2,6-dimethylphenyl)sulfonyl-2-pyrrolidinyl]methoxy]-4-pyrimidinyl]-3,7-diazaspiro[4.4]nonane], the results for the inhibition at 10 µM at human B1R and on rat B1R were 86% and 105%, respectively.
For `COc1cc(C)c(S(=O)(=O)N(CCOc2nccc(N3CCC(O)(c4cccnc4)CC3)n2)C2CC2)c(C)c1` [Example G-008, N-cyclopropyl-N-[2-[[4-[4-hydroxy-4-(3-pyridyl)-1-piperidinyl]-2-pyrimidinyl]oxy]ethyl]-4-methoxy-2,6-dimethylbenzenesulfonamide], in that order: 77% and 98%.
Take `COc1cc(C)c(S(=O)(=O)N(CCCc2cncc(N3CCC4(CCN(c5ccncc5)CC4)CC3)n2)C2CC2)c(C)c1` [Example I-006, N-cyclopropyl-4-methoxy-2,6-dimethyl-N-[3-[6-(9-pyridin-4-yl-3,9-diazaspiro[5.5]undecan-3-yl)-pyrazin-2-yl]-propyl]-benzenesulfonic acid amide]: the inhibition at 10 µM on human B1R was 94%; on rat B1R, 97%.
As for `COc1cc(C)c(S(=O)(=O)N2CCCCC2COc2nccc(N3CCC(CCN4CCCCC4)CC3)n2)c(C)c1` (stereo not shown) [G_CC-026], the “% inh. (hum. B1R) 10 μM” value on human B1R is 97%. Besides, the “% inh. (rat B1R) 10 μM” value on rat B1R is on record as 100%.
Turning to `Cc1cccc(Cl)c1S(=O)(=O)N(CCOc1ccnc(N2CCC3(CCN(c4ccncc4)CC3)CC2)n1)C1CC1` [Example H-006, 2-chloro-N-cyclopropyl-6-methyl-N-[2-[[2-[9-(4-pyridyl)-3,9-diazaspiro[5.5]undecan-3-yl]-4-pyrimidinyl]oxy]ethyl]benzenesulfonamide], the inhibition at 10 µM at human B1R was found to be 64%; at rat B1R it was 92%.
For `COc1cc(C)c(S(=O)(=O)N2CC(Oc3nccc(N4CCC5(CCN(c6ccncc6)CC5)CC4)n3)C2)c(C)c1` [Example G-018, 3-[2-[[1-(4-methoxy-2,6-dimethylphenyl)sulfonyl-3-azetidinyl]oxy]-4-pyrimidinyl]-9-(4-pyridyl)-3,9-diazaspiro[5.5]undecane], in that order: 99% and 93%.
With `COc1cc(C)c(S(=O)(=O)N2CCCCC2COc2nccc(N3CCC(OCCN4CCCC4)(c4cccnc4)CC3)n2)c(C)c1` (stereo not shown) [Example G-004, 2-[[1-(4-methoxy-2,6-dimethylphenyl)sulfonyl-2-piperidinyl]methoxy]-4-[4-(3-pyridyl)-4-(2-1-pyrrolidinylethoxy)-1-piperidinyl]pyrimidine], the inhibition at 10 µM on human B1R was determined as 99%; on rat B1R, 73%.
Regarding `COc1cc(C)c(S(=O)(=O)N(CCOc2nccc(N3CCC4(CCC(N5CC(F)(F)C5)CC4)CC3)n2)C2CC2)c(C)c1` [Example G-017, N-cyclopropyl-N-[2-[[4-[9-(3,3-difluoro-1-azetidinyl)-3-azaspiro[5.5]undecan-3-yl]-2-pyrimidinyl]oxy]ethyl]-4-methoxy-2,6-dimethylbenzenesulfonamide], the inhibition at 10 µM on human B1R worked out at 22%; at rat B1R, 103%.
Take `COc1cc(C)c(S(=O)(=O)N(C)CCOc2ccnc(N(C)CCN3CCC(c4ccccc4)(N(C)C)CC3)n2)c(C)c1` [Example H-003, N-[2-[[2-[2-(4-dimethylamino-4-phenyl-1-piperidinyl)ethyl-methylamino]-4-pyrimidinyl]oxy]ethyl]-4-methoxy-N,2,6-trimethylbenzenesulfonamide]: at human B1R, the inhibition at 10 µM is 90%. At rat B1R (10 µM), the “% inh. (rat B1R) 10 μM” value is reported as 71%.
In the case of `COc1cc(C)c(S(=O)(=O)N(C)CCOc2nccc(N3CCC(CCN4CCCC4)CC3)n2)c(C)c1` [Example G-001, 4-methoxy-N,2,6-trimethyl-N-[2-[[4-[4-(2-1-pyrrolidinylethyl)-1-piperidinyl]-2-pyrimidinyl]oxy]ethyl]benzenesulfonamide], the inhibition at 10 µM on human B1R was 84%; on rat B1R, 99%.
With `COc1cc(C)c(S(=O)(=O)N2CCCCC2COc2nccc(N3CCN(CC4CCN(C)CC4)CC3)n2)c(C)c1` (stereo not shown) [G_CC-014, 2-[[1-(4-methoxy-2,6-dimethylphenyl)sulfonyl-2-piperidinyl]methoxy]-4-[4-[(1-methyl-4-piperidinyl)methyl]-1-piperazinyl]pyrimidine], the inhibition at 10 µM at human B1R was determined as 94%; on rat B1R, 105%.
Regarding `COc1cc(C)c(S(=O)(=O)N(CCN(C)c2ccnc(N3CCC4(CCN(c5ccncc5)CC4)CC3)n2)C2CC2)c(C)c1` [Example I-004, N-cyclopropyl-4-methoxy-2,6-dimethyl-N-[2-[methyl-[2-(9-pyridin-4-yl-3,9-diazaspiro[5.5]undecan-3-yl)-pyrimidin-4-yl]-amino]-ethyl]-benzenesulfonic acid amide], the inhibition at 10 µM at human B1R turned out to be 85%; at rat B1R it was 102%.
For `COc1cc(C)c(S(=O)(=O)N(C)CCOc2nccc(N3CCN(C4CCN(C)CC4)CC3)n2)c(C)c1` [G_CC-001, 4-methoxy-N,2,6-trimethyl-N-[2-[[4-[4-(1-methyl-4-piperidinyl)-1-piperazinyl]-2-pyrimidinyl]oxy]ethyl]benzenesulfonamide], the inhibition at 10 µM on human B1R turned out to be 98%; on rat B1R it was 97%.
